One assay has as its system Huh7-BB7 cells. The experiment in a line: Selection of replicon variants with reduced susceptibility, Study B. Format: cell-based, HCV genotype 1b. The following applies: prolonged treatment. As for the experimental part:
Huh7-BB7 cells are plated at a density of 2-3×10^5 cells per T25 flask and cultured in DMEM medium with 2% FCS in the absence of G418. The cells are treated with DMSO as a control, or HCV-796 alone at 40 and 80 nM, or SCH 503034 alone at 200, 400, 600 and 800 nM, or a combination of HCV-796 and SCH 503034 at 40/400, 80/400, 40/800 and 80/800 nM, respectively, for HCV-796 and SCH 503034. The DMSO concentration in both drug-treated and control cells is 0.5% (v/v). Tissue culture plates are incubated in a 37° C. incubator containing 5% CO2. When cells reach about 80% confluence (about 2-3 days), cells are passaged in a 1:3 dilution and the old medium is replaced with fresh medium containing the compounds at the respective concentrations. Cell pellets containing […] are collected during each passage, and monitored for HCV RNA using quantitative Taqman RT-PCR as described above. […]
Drug susceptibility of the replicon variants is evaluated as previously described in the section “Intracellular antiviral activities in HCV Replicon”. […] The plate is incubated for 72 hours at 37° C. and 5% CO2 before quantification of HCV and GAPDH RNAs. The amounts of HCV, rRNA and GAPDH RNAs are quantified using the TaqMan RT-PCR assay as described above (see Quantification of HCV and 18S Ribosomal RNAs).

The subject of assay [1] is HCV replicon cells (Huh-7 cells). The experiment in a line: Inhibition of replicon RNA levels (3-day assay, Taqman). Format: cell-based. The following applies: Hepatitis C virus. On the procedure:
Replicon cells are seeded at ˜5000 cells/well in 96-well collagen I-coated Biocoat plates (Becton Dickinson). Twenty-four hrs post-seeding, inhibitors diluted in DMSO are added to replicon cells (Huh-7 cells). The final concentrations of DMSO and fetal bovine serum are 1% and 10%, respectively. SCH 503034 is serially diluted at 1:2 for a 10-point titration. To each concentration of the SCH 503034, the second inhibitor, HCV-796 or rhIFN-α2b control is titrated in. IFN-α is serially diluted at 1:3, whereas HCV RNA polymerase inhibitor, HCV-796, is serially diluted at 1:2. […] All samples are tested in triplicate. Media and inhibitors are refreshed daily for 3 days at which point the cells are washed with PBS and lysed in 1× cell lysis buffer (Ambion cat #8721). The replicon RNA level is measured using real time PCR (Taqman assay) The amplicon is located in 5B. The PCR primers are: 5B.2F, […] (SEQ ID NO:1) and 5B.2R, […] (SEQ ID NO:2). The probe sequence is FAM-labeled […] (SEQ ID NO:3). GAPDH RNA is used as an endogenous control and is amplified in the same reaction as NS5B (multiplex PCR) using primers and VIC-labeled probe recommended by the manufacturer (PE Applied Biosystem). The real-time RT-PCR reactions are run on an AB1 PRISM 7900HT Sequence Detection System using the following program: 48° C. for 30 min, 95° C. for 10 min, 40 cycles of 95° C. for 15 sec, […] for 1 min. […]
(In general: A replicon is a self-replicating genome or part of one, used to study replication in cells.)

In assay [2] the test system is GAPDH RNA, Huh7-1a replicon cells. The assay can be described thus: GAPDH RNA in genotype 1a (H77) replicon cells. The following applies: Homo sapiens, 72 h, read-out: GAPDH EC50. Format: cell-based. As for the experimental part:
HCV genotype 1b, BB7 replicon-containing cell line is derived from a human hepatoma cell line (Huh7). A genotype 1a (H77 isolate; GenBank Accession #AF009606) is derived from replicon-containing cell line (Huh7-1a). The cell lines are cultured at 37° C. and 5% CO2 in Dulbecco's Modified Eagle Media (D-MEM; Invitrogen #11965-084) containing 10% fetal bovine serum (FBS; HyClone #SH300070) supplemented with 1% penicillin/streptomycin (Invitrogen #15140-122), 1% non-essential amino acids (Invitrogen #11140-050), 0.66 mM HEPES buffer, pH 7.55 (Invitrogen #15630-080), and 1 mg/mL G418 (Geneticin®, Invitrogen #11811-031 or #10131-027). Genotype 1a and genotype 1b replicon-containing cell lines contain approximately 1000 and 2000 RNA genome equivalents per cell, respectively, when maintained in a subconfluent monolayer in the presence of 1 mg/mL G418. For compound testing, G418 is eliminated and the FBS concentration is reduced to 2%.
Genotype 1b (BB7) and 1a (H77) cells are seeded in 96-well plates at a sub-confluent density (7000 cells/well) in medium containing 2% FBS without G418. […] The amounts of HCV, rRNA and GAPDH RNAs are quantified using the TaqMan RT-PCR assay.

A value given as a limit tells only on which side of the number the result lay.

For orientation: IC90 means the concentration at which the effect reaches the 90% level. High values mean a need for much substance, low ones an effect from little substance. Broadly, the EC50 is the concentration that produces a half-maximal response. In the case of `CC(C)(C)NC(=O)N[C@H](C(=O)N1C[C@H]2[C@@H]([C@H]1C(=O)NC(CC1CCC1)C(=O)C(N)=O)C2(C)C)C(C)(C)C` (stereo partly drawn) [SCH 503034, (1R,5S)—N-[3-amino-1-(cyclobutylmethyl)-2,3-dioxopropyl]-3-[2(S)-[[[(1,1-dimethylethyl)amino]carbonyl]amino]-3,3-dimethyl-1-oxobutyl]-6,6-dimethyl-3-azabicyclo[3.1.0]hexan-2(S)-carboxamide], in the assay on Huh7-BB7 cells (800 nM SCH 503034 alone), the “Selection of resistant replicon variants” value is given as “selection of replicon variants that have reduced susceptibility”. The same compound had an IC90 in assay [1] of 400 nM. Besides, the EC50 in assay [2] was over 3200 nM.
On to `CNC(=O)c1c(-c2ccc(F)cc2)oc2cc(N(CCO)S(C)(=O)=O)c(C3CC3)cc12` [HCV-796, 5-cyclopropyl-2-(4-fluoro-phenyl)-6-[(2-hydroxy-ethyl)-methanesulfonyl-amino]-benzofuran-3-carboxylic acid methylamide], for which, in the assay on Huh7-BB7 cells (up to 80 nM HCV-796 alone), the “Selection of resistant replicon variants” value is reported as “selection of replicon variants that have reduced susceptibility”. In addition, the IC90 in assay [1] stood at 30 nM. Further, in assay [2], the EC50 is over 5600 nM.

These data come from patent US20070224167A1, “Novel HCV inhibitor combinations and methods” (priority 2006, published 2007).
